Tests used:
human FPR2 = human FPR2 (Homo sapiens (Human), UniProt P25090); experiment: FPR2 cyclic adenosine monophosphate (cAMP) assay; assay type: cell-based; conditions: CHO cells overexpressing human FPR2; forskolin 5 µM; inhibition of cAMP production; read-out: hFPR2 cAMP2 EC50
Summary of the method: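 Inhibition of forskolin-driven (5 µM) cAMP, with 200 µM IBMX, measured in human FPR2-expressing CHO cells, 2,000 per well, 30 min at room temperature; compounds tested 0.020 nM to 100 µM in 1% DMSO. HTRF 665/590 ratio converted to cAMP via calibration curve, then 4-parameter fit.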

human FPR1 = human FPR1 (Homo sapiens (Human), UniProt P21462); experiment: FPR1 cyclic adenosine monophosphate (cAMP) assay; assay type: cell-based; conditions: CHO cells overexpressing human FPR1; forskolin 10 µM; inhibition of cAMP production; read-out: hFPR1 cAMP EC50
Summary of the method: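 Human FPR1-expressing CHO cells were used at 4,000 per well, with compound at 0.020 nM–100 µM in 1% DMSO. Potency came from a 4-parameter logistic fit.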

Sequence of human FPR2 (P25090 whole entry): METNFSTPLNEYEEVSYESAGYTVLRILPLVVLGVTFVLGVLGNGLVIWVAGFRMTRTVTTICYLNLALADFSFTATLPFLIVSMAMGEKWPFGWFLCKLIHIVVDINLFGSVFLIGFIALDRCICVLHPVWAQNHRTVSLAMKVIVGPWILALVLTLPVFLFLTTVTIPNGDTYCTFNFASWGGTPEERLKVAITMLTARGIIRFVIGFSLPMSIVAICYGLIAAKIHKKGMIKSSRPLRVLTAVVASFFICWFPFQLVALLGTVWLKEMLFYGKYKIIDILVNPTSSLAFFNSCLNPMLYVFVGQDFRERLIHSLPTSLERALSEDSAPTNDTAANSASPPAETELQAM
Sequence of human FPR1 (P21462 whole entry): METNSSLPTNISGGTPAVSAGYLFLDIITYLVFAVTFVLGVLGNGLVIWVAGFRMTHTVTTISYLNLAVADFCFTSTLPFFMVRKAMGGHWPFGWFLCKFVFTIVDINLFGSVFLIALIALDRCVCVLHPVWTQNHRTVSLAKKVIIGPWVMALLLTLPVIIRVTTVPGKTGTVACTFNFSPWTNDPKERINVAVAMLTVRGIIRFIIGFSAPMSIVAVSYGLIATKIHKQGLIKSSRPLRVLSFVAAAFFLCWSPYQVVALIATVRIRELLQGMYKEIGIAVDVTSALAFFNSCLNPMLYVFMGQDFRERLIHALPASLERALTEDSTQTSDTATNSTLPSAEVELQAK

SMILES | EC50 (human FPR2) [nM] | EC50 (human FPR1) [nM]
COc1cc(F)c([C@@H]2CN(c3c(C#N)ccn(C)c3=O)C(=O)[C@H]2NC(=O)c2ccc(Cl)cc2)c(F)c1 [Example 251] | 7 | > 5000
COc1cc(F)c([C@@H]2CN(c3cccn(CCN4CC5(COC5)C4)c3=O)C(=O)[C@H]2NC(=O)c2ccc(OC(F)(F)F)cc2)c(F)c1 [Example 210] | 5.5 | 190
COc1cc(F)c([C@@H]2CN(c3nccc(N4CCN(S(C)(=O)=O)CC4)c3C(F)(F)F)C(=O)[C@H]2NC(=O)c2ccc(OC(F)F)cc2)c(F)c1 [Example 282] | 8.3 | 700
COc1cc(F)c([C@@H]2CN(c3cncnc3O)C(=O)[C@H]2NC(=O)c2ccc(OC(F)F)cc2)c(F)c1 [Example 346] | 97 | 1900
COc1cc(F)c([C@@H]2CN(c3ncccc3C(F)(F)F)C(=O)[C@H]2NC(=O)c2ccc(OC(F)F)cc2)c(F)c1 [Example 7] | 10 | 1300
COc1cc(F)c([C@@H]2CN(c3nc(C(C)(C)O)ccc3F)C(=O)[C@H]2NC(=O)c2ccc(Cl)cc2)c(F)c1 [Example 313] | 10 | 5400
COCCN1CCC(N2C[C@@H](c3c(F)cc(OC)cc3F)[C@H](NC(=O)c3ccc(OC(F)(F)F)cc3)C2=O)C1=O (some centres unmarked) [Example 353] | 4.2 | 17
COc1cc(F)c([C@@H]2CN(c3c(C)ccn(CC(O)C(F)(F)F)c3=O)C(=O)[C@H]2NC(=O)c2ccc(OC(F)F)cc2)c(F)c1 (some centres unmarked) [Example 294] | 8.8 | 9.1
COCC(CO)n1cccc(N2C[C@@H](c3ccc(Cl)cc3)[C@H](NC(=O)c3ccc(OC(F)F)cc3)C2=O)c1=O (some centres unmarked) [Example 118] | 3.1 | 4.1
COCCn1cccc(N2C[C@@H](c3c(F)cc(OC)cc3F)[C@H](NC(=O)c3ccc(OC(F)(F)F)cc3)C2=O)c1=O [Example 302] | 10 | 22
CCn1cccc(N2C[C@@H](c3ccc(Cl)cc3)[C@H](NC(=O)c3ccc(OC(F)(F)F)cc3)C2=O)c1=O [Example 67] | 1.8 | 4.4
COc1cc(F)c([C@@H]2CN(c3cc(OC)ccc3F)C(=O)[C@H]2NC(=O)c2ccc(OC(F)(F)F)cc2)c(F)c1 [Example 8] | 15 | 280
COCCn1cccc(N2C(=O)[C@@H](NC(=O)c3ccc(OC(F)F)cc3)[C@H](c3c(F)cc(OC)cc3F)[C@@H]2C)c1=O [Example 105] | 2.9 | 65
COCC(CO)n1cccc(N2C[C@@H](c3ccc(OC)cc3)[C@H](NC(=O)c3ccc(OC(F)F)cc3)C2=O)c1=O (some centres unmarked) [Example 315] | 10 | 9.6
COCCn1cccc(N2C[C@@H](c3ccc(Cl)cc3)[C@H](NC(=O)c3ccc(OC(F)(F)F)cc3)C2=O)c1=O [Example 107] | 2.9 | 5.7
COc1cc(F)c([C@@H]2CN(Cc3ccccc3P(C)(C)=O)C(=O)[C@H]2NC(=O)c2ccc(OC(F)(F)F)cc2)c(F)c1 [Example 17] | 36 | 69
COCC(C(=O)N(C)C)n1cccc(N2C[C@@H](c3c(F)cc(OC)cc3F)[C@H](NC(=O)c3ccc(OC(F)(F)F)cc3)C2=O)c1=O (some centres unmarked) [Example 134] | 3.5 | 1.6
COc1cc(F)c([C@@H]2CN(c3ncccc3F)C(=O)[C@H]2NC(=O)c2ccc(OC(F)(F)F)cc2)c(F)c1 [Example 28] | 7 | 1100
COc1ccc([C@@H]2CN(c3cccn(CCO)c3=O)C(=O)[C@H]2NC(=O)c2ccc(OC(F)F)cc2)c(F)c1 [Example 143] | 3.6 | 53
COc1cc(F)c([C@@H]2CN(c3nc(N4C[C@@H](C)N(C)[C@@H](C)C4)ccc3C#N)C(=O)[C@H]2NC(=O)c2ccc(OC(F)F)cc2)c(F)c1 [Example 332] | 13 | 5800
COCCn1ccc(C)c(N2C[C@@H](c3ccc(Cl)cc3)[C@H](NC(=O)c3ccc(OC(F)F)cc3)C2=O)c1=O [Example 340] | 23 | 1.1
COc1cc(F)c([C@@H]2CN(c3nc(N4CC5(COC5)C4)ccc3F)C(=O)[C@H]2NC(=O)c2ccc(OC(F)F)cc2)c(F)c1 [Example 209] | 5.5 | 130

Further lines, results first:

EC50 (human FPR2) [nM] | EC50 (human FPR1) [nM] | SMILES
21.8 | 660 | COc1cc(N2C[C@@H](c3c(F)cc(OC)cc3F)[C@H](NC(=O)c3ccc(OC(F)(F)F)cc3)C2=O)nc(C(C)(C)O)c1 [Example 584]
3.3 | 15 | COc1cc(F)c([C@@H]2CN(c3c(C)ccn(CC(F)F)c3=O)C(=O)[C@H]2NC(=O)c2ccc(Cl)cc2)c(F)c1 [Example 421]
12 | 1.5 | COc1ccc([C@@H]2CN(c3c(C)ccn(C4CCC4)c3=O)C(=O)[C@H]2NC(=O)c2ccc(OC(F)(F)F)cc2)c(F)c1 [Example 688]
13.5 | 33 | COc1cc(F)c([C@@H]2CN(c3c(C)ccn(C4CCNC4)c3=O)C(=O)[C@H]2NC(=O)c2ccc(OC(F)F)cc2)c(F)c1 (some centres unmarked) [Example 612]
3 | 3 | COc1cc(F)c([C@@H]2CN(c3c(C)ccn(CC4CC4)c3=O)C(=O)[C@H]2NC(=O)c2ccc(Cl)cc2)c(F)c1 [Example 450]
1.2 | 1600 | COc1cc(F)c([C@@H]2CN(c3ccc(F)c(N4C[C@@H]5C[C@H]4CN5C)n3)C(=O)[C@H]2NC(=O)c2ccc(OC(F)F)cc2)c(F)c1 [Example 569]
1 | 200 | COc1cc(F)c([C@@H]2CN(c3nc(OCC4CCOC4)ccc3F)C(=O)[C@H]2NC(=O)c2ccc(OC(F)F)cc2)c(F)c1 (some centres unmarked) [Example 535]
4.7 | 2800 | COc1cc(F)c([C@@H]2CN(c3nccc(NCC4CCCO4)c3C(F)(F)F)C(=O)[C@H]2NC(=O)c2ccc(Cl)cc2)c(F)c1 (some centres unmarked) [Example 447]
3.5 | 4 | COc1cc(F)c([C@@H]2CN(c3c(C)ccn(CC4CCOC4)c3=O)C(=O)[C@H]2NC(=O)c2ccc(OC(F)F)cc2)c(F)c1 (some centres unmarked) [Example 695]
1.3 | 7.8 | CCn1ccc(N2C[C@@H](c3c(F)cc(OC)cc3F)[C@H](NC(=O)c3ccc(OC(F)(F)F)cc3)C2=O)n1 [Example 649]
7.7 | 900 | COc1cc(F)c([C@@H]2CN(c3cccc(C4CCCN(CCO)C4)n3)C(=O)[C@H]2NC(=O)c2ccc(OC(F)F)cc2)c(F)c1 (some centres unmarked) [Example 502]
1.9 | 8 | COc1ccc([C@@H]2CN(c3cccn(CC(O)C(F)(F)F)c3=O)C(=O)[C@H]2NC(=O)c2ccc(OC(F)F)cc2)cc1 (some centres unmarked) [Example 371]
2.8 | 1000 | COCCn1cc(C)c(C)c(N2C[C@@H](c3c(F)cc(OC)cc3F)C(NC(=O)c3ccc(Cl)cc3)C2=O)c1=O (some centres unmarked) [Example 641]
4.2 | 3400 | COc1cc(C2CCN(CCF)CC2)nc(N2C(=O)[C@@H](NC(=O)c3ccc(OC(F)F)cc3)[C@H](c3c(F)cc(OC)cc3F)[C@@H]2C)c1 [Example 711]
2.9 | 13 | COc1ccc([C@@H]2CN(c3cccn(CC(O)C(F)(F)F)c3=O)C(=O)[C@H]2NC(=O)c2ccc(OC(F)F)cc2)c(F)c1 (some centres unmarked) [Example 465]
5.1 | 2 | Cc1ccn(CC(F)F)c(=O)c1N1C[C@@H](c2ccc(Cl)cc2)[C@H](NC(=O)c2ccc(OC(F)(F)F)cc2)C1=O [Example 443]
1.9 | 11 | COc1ccc([C@@H]2CN(c3c(C)ccn(CCO)c3=O)C(=O)[C@H]2NC(=O)c2ccc(Cl)cc2)c(F)c1 [Example 394]
4 | 900 | COc1cc(F)c([C@@H]2CN(c3c(C)ncn(CC(F)F)c3=O)C(=O)[C@H]2NC(=O)c2ccc(Cl)cc2)c(F)c1 [Example 533]
2.3 | 630 | COc1cc(F)c([C@@H]2CN(c3ncn(CC(C)C)n3)C(=O)[C@H]2NC(=O)c2ccc(Cl)cc2)c(F)c1 [Example 532]
9.6 | > 5000 | COc1cc(F)c([C@@H]2CN(c3cccc(N4CCN(S(C)(=O)=O)CC4)n3)C(=O)[C@H]2NC(=O)c2ccc(OC(F)F)cc2)c(F)c1 [Example 567]
8.7 | 5.3 | COc1cc(F)c([C@@H]2CN(c3c(C)ccn(CC4CCO4)c3=O)C(=O)[C@H]2NC(=O)c2ccc(OC(F)(F)F)cc2)c(F)c1 (some centres unmarked) [Example 615]
10 | 3.5 | COc1cc(F)c([C@@H]2CN(c3nc(C4CCN(CC(F)(F)F)CC4)ccc3F)C(=O)[C@H]2NC(=O)c2ccc(OC(F)F)cc2)c(F)c1 [Example 550]
2.8 | 1800 | COc1cc(F)c([C@@H]2CN(c3cncn(C(CO)C(F)(F)F)c3=O)C(=O)[C@H]2NC(=O)c2ccc(Cl)cc2)c(F)c1 (some centres unmarked) [Example 517]
4.2 | 620 | COc1cc(F)c([C@H]2[C@H](NC(=O)c3ccc(OC(F)F)cc3)C(=O)N(c3cccn(CCO)c3=O)[C@H]2C)c(F)c1 [Example 445]
1.4 | 1900 | COc1cc(F)c([C@@H]2CN(c3cccc(C4CCCNC4)n3)C(=O)[C@H]2NC(=O)c2ccc(OC(F)F)cc2)c(F)c1 (some centres unmarked) [Example 719]
14 | 210 | COc1cc(F)c([C@@H]2CN(c3nccc(OC4CCOC4)c3C(F)(F)F)C(=O)[C@H]2NC(=O)c2ccc(Cl)cc2)c(F)c1 (some centres unmarked) [Example 709]
10.5 | 8.5 | COc1cc(F)c([C@@H]2CN(c3c(C)c4c(n(CCO)c3=O)CCC4)C(=O)[C@H]2NC(=O)c2ccc(OC(F)F)cc2)c(F)c1 [Example 591]

From patent publication US20230348426A1, “OXOPYRROLIDINE FPR2 AGONISTS” (Bristol-Myers Squibb Company, priority 2020, published 2023)
